For assay [1], the target named is B-Raf kinase (SEQ. ID NO: 2) (Homo sapiens (Human), UniProt P15056). The experiment in a line: Biochemical Assay for B-Raf (1). Particulars: Table J, assay version (1); read-out: BRAF (1) IC50. The procedure, abridged:
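IC50 derived by four-parameter sigmoidal fit of percent inhibition, normalised to uninhibited and reference-inhibitor controls, using reaction rates over 4–5 h. Coupled spectrophotometric readout (NADH loss at 340 nm, 6 h, 30° C.); 1 mM ATP, 30.1 nM MEK, 0.13 nM B-Raf, pH 7.5 Tris buffer, 1% DMSO.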

A further assay relates to A375 cells. The experiment in a line: A375 Cell Proliferation Assay (1). It is filed as cell-based. Particulars: Homo sapiens, A-375. The procedure, abridged:
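Resazurin fluorescence (excitation 540 nm, emission 600 nm, after a further 5-6 h) gave IC50s from triplicate compound dilution series.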

Assay [2] concerns the target C-Raf kinase (SEQ. ID NO: 3) (Homo sapiens (Human), UniProt P04049, Y340D/Y341D). The experiment in a line: Biochemical Assay for C-Raf (1). Particulars: Table J, assay version (1); read-out: CRAF (1) IC50. The procedure, abridged: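 IC50 values come from a four-parameter fit of percent inhibition, using the reaction rate over 4–5 h of a 6 h continuous 340 nm read at 30 °C. The enzyme mix was C-Raf 0.43 nM, MEK substrate 30.1 nM and ATP 1 mM, in a PK/LDH NADH-coupled format in Tris pH 7.5 with 1% DMSO.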

The subject of the next assay is WM3928 cells. The experiment in a line: WM3928 Cell Proliferation Assay (1). It is filed as cell-based. The procedure, abridged: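 IC50 was derived from resazurin fluorescence (ex 540, em 600 nm) after a 6–7 h dye incubation. Before that, cells had 67–72 h of compound exposure at 37 °C, 5% CO2.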

SMILES strings stand for the structures.

B-Raf kinase (SEQ. ID NO: 2), sequence (P15056 416-766): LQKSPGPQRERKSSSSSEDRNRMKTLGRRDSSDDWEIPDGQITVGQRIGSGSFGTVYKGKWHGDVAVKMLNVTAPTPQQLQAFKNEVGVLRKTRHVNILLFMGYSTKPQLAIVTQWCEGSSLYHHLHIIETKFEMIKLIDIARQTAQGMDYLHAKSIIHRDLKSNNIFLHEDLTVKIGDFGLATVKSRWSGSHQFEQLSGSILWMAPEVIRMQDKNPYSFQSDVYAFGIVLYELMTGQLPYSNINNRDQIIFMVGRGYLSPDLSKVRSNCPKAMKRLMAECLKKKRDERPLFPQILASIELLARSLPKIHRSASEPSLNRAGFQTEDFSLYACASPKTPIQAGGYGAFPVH
C-Raf kinase (SEQ. ID NO: 3), sequence (P04049 307-648 Y340D/Y341D): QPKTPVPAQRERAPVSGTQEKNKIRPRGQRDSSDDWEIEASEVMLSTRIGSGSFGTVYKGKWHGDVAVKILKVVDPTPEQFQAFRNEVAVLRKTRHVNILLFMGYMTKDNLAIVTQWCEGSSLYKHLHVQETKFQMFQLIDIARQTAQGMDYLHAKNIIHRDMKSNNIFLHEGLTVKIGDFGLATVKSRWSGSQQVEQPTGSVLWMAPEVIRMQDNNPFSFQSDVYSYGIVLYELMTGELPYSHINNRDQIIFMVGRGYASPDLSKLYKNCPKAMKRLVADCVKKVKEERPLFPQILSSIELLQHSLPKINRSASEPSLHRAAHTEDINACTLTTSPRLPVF

As to `Cc1ncc(NC(=O)c2cn(C(C)C)nn2)cc1-c1nccc(-c2ccnc(NC(=O)C3CC3)c2)n1` [Example 285], the IC50 (as a rule, the point on the concentration scale where inhibition reaches its midpoint) was not above 100 nM in assay [1], 1000 to 10000 nM in the assay with A375 cells, not above 100 nM in assay [2] and 1000 to 10000 nM with WM3928 cells.
On to `Cc1cc(F)c(NC(=O)c2ccnc(C(C)(C)C#N)c2)cc1-c1cc(-c2ccnc(NC(=O)C3CC3)c2)cnn1` [Example 298], for which the IC50 in assay [1] was not above 100 nM; in the assay on A375 cells, 100 to 500 nM; in assay [2] it was not above 100 nM; in the assay with WM3928 cells, 100 to 500 nM.
Take `Cc1ccc(NC(=O)c2ccnc(S(C)(=O)=O)c2)cc1-c1cc(-c2ccnc(NC(=O)C3CC3)c2)cnn1` [Example 332]: the IC50 in assay [1] was not above 100 nM; in the assay on A375 cells, 1000 to 10000 nM; in assay [2], not above 100 nM; in the assay with WM3928 cells it was 1000 to 10000 nM.
Regarding `CC(=O)Nc1cc(-c2cncc(-c3cc(NC(=O)c4ccnc(C(F)(F)F)c4)ccc3C)n2)ccn1` [Example 29], the IC50 in assay [1] is not above 100 nM; with A375 cells, 100 to 500 nM; in assay [2] it was not above 100 nM; with WM3928 cells it was not above 100 nM.
With `Cc1ccc(NC(=O)c2cnn(C(C)(C)C)c2)cc1-c1cc(-c2ccnc(NC(=O)C3CC3)c2)cnn1` [Example 321], the IC50 is not above 100 nM in assay [1], 100 to 500 nM in the assay on A375 cells, not above 100 nM in assay [2] and 100 to 500 nM with WM3928 cells.
In the case of `Cc1ncc(NC(=O)c2cn(C(C)C)nn2)cc1-c1ccnc(-c2ccnc(NC(=O)C3CC3)c2)n1` [Example 281], the half-maximal inhibitory concentration (IC50) was not above 100 nM in assay [1], 1000 to 10000 nM with A375 cells, not above 100 nM in assay [2] and 1000 to 10000 nM in the assay with WM3928 cells.
Take `COC(=O)Nc1cc(-c2cccc(-c3cc(NC(=O)c4ccnc(C(C)(C)C#N)c4)cnc3C)c2)ccn1` [Example 282]: the IC50 in assay [1] is not above 100 nM; with A375 cells, not above 100 nM; in assay [2] it was not above 100 nM; with WM3928 cells, 100 to 500 nM.
For `COC(=O)Nc1cc(-c2cc(-c3cc(NC(=O)c4ccnc(C(C)(C)C#N)c4)cnc3C)ccn2)ccn1` [Example 297], the IC50 (in assay [1]; in the assay with A375 cells; in assay [2]; with WM3928 cells) was not above 100 nM throughout.
Regarding `CNC(=O)c1cc(-c2cc(-c3cc(NC(=O)c4ccnc(C(C)(C)F)c4)ccc3C)cnc2C)ccn1` [Example 371], the IC50 (in assay [1]; in the assay on A375 cells; in assay [2]; with WM3928 cells) was 100 to 500 nM each time.
Regarding `Cc1ccc(NC(=O)c2cn(C(C)C)nn2)cc1-c1cc(-c2ccnc(NC(=O)C3CC3)c2)cnn1` [Example 320], the half-maximal inhibitory concentration (IC50) was not above 100 nM in assay [1], 1000 to 10000 nM in the assay with A375 cells, not above 100 nM in assay [2] and 1000 to 10000 nM in the assay on WM3928 cells.
